This series deals with CCRIS mutagenicity, Ames/micronucleus/aberration tests. Nature of the series: CCRIS mutagenicity studies.
Setting [1] is: Test System: AMES SALMONELLA TYPHIMURIUM, Strain/Indicator: TA98, Metabolic Activation: NONE, Method: PREINCUBATION
Where [2] appears, read: Test System: AMES SALMONELLA TYPHIMURIUM, Strain/Indicator: TA100, Metabolic Activation: NONE, Method: PREINCUBATION

Each structure is given as a SMILES string. Calls of active or inactive are those of the source. The rule behind the calls is not given here.

Consider `CCNC(=O)/C=C/c1ccc([N+](=O)[O-])o1`, for which the mutagenic call under setting [1] was “active; positive”.
With `OC/C=C/C=C/CO`, the mutagenic call (Test System: CHINESE HAMSTER V-79, Strain/Indicator: V-79 (HGPRT)/8-AZAGUANINE, Metabolic Activation: NONE) is “inactive; negative”.
Regarding `Cc1ccc2c(c1N)C(=O)c1ccccc1C2=O`, the mutagenic call reads like this: (Test System: AMES SALMONELLA TYPHIMURIUM, Strain/Indicator: TA98, Metabolic Activation: HAMSTER, LIVER, S-9, AROCLOR 1254 (30%), Method: PREINCUBATION) “active; positive”; under setting [1], “inactive; negative”; (Test System: AMES SALMONELLA TYPHIMURIUM, Strain/Indicator: TA98, Metabolic Activation: RAT, LIVER, S-9, AROCLOR 1254 (30%), Method: PREINCUBATION) “active; positive”; (Test System: AMES SALMONELLA TYPHIMURIUM, Strain/Indicator: TA100, Metabolic Activation: HAMSTER, LIVER, S-9, AROCLOR 1254 (30%), Method: PREINCUBATION) “inactive; negative”; under setting [2], “inactive; negative”; (Test System: AMES SALMONELLA TYPHIMURIUM, Strain/Indicator: TA100, Metabolic Activation: RAT, LIVER, S-9, AROCLOR 1254 (30%), Method: PREINCUBATION) “active; positive”. In addition, the mutagenic call is, setting by setting: (Test System: AMES SALMONELLA TYPHIMURIUM, Strain/Indicator: TA1537 R+, Metabolic Activation: NONE, Method: STANDARD PLATE) “active; positive”; (Test System: AMES SALMONELLA TYPHIMURIUM, Strain/Indicator: TA1537 R+, Metabolic Activation: RAT, LIVER, S-9, AROCLOR 1254, Method: STANDARD PLATE) “active; positive”; (Test System: MOUSE LYMPHOMA, Strain/Indicator: L5178Y (TK+/TK-), Metabolic Activation: NONE, Method: SUSPENSION/PLATE) “active; positive”.
Regarding `CC(=O)/C=C/c1ccccc1`, the mutagenic call (Test System: AMES SALMONELLA TYPHIMURIUM, Strain/Indicator: TA98, Metabolic Activation: HAMSTER, LIVER, S-9, AROCLOR 1254, Method: STANDARD PLATE) was “inactive; negative”; the mutagenic call (Test System: AMES SALMONELLA TYPHIMURIUM, Strain/Indicator: TA98, Metabolic Activation: NONE, Method: STANDARD PLATE) is “inactive; negative”; the mutagenic call (Test System: AMES SALMONELLA TYPHIMURIUM, Strain/Indicator: TA98, Metabolic Activation: RAT, LIVER, S-9, AROCLOR 1254, Method: STANDARD PLATE) is “inactive; negative”; the mutagenic call (Test System: AMES SALMONELLA TYPHIMURIUM, Strain/Indicator: TA100, Metabolic Activation: HAMSTER, LIVER, S-9, AROCLOR 1254, Method: STANDARD PLATE) was “active; positive”; the mutagenic call (Test System: AMES SALMONELLA TYPHIMURIUM, Strain/Indicator: TA100, Metabolic Activation: NONE, Method: STANDARD PLATE) is “inactive; negative”; the mutagenic call (Test System: AMES SALMONELLA TYPHIMURIUM, Strain/Indicator: TA100, Metabolic Activation: RAT, LIVER, S-9, AROCLOR 1254, Method: STANDARD PLATE) is “active; positive”. Further, the mutagenic call runs as follows: (Test System: Mouse lymphoma, Strain/Indicator: L5178Y (tk+/tk-), Metabolic Activation: None, Method: Suspension/plate) “active; positive”; (Test System: Mouse lymphoma, Strain/Indicator: L5178Y (tk+/tk-), Metabolic Activation: Rat, Liver, S-9, Aroclor 1254, Method: Suspension/plate) “inactive; negative”.
As for `N[C@@H](CCC(=O)N[C@@H](CSc1ccc([N+](=O)[O-])cc1[N+](=O)[O-])C(=O)NCC(=O)O)C(=O)O`, the mutagenic call is, setting by setting: (Test System: AMES SALMONELLA TYPHIMURIUM, Strain/Indicator: TA100(NR), Metabolic Activation: NONE, Method: PREINCUBATION) “inactive; negative”; (Test System: AMES SALMONELLA TYPHIMURIUM, Strain/Indicator: TA100/GSH-, Metabolic Activation: NONE, Method: PREINCUBATION) “active; positive”; under setting [2], “inactive; negative”.
In the case of `C=C(C=O)CC`, the mutagenic call under setting [2] is “active; positive”; the mutagenic call (Test System: AMES SALMONELLA TYPHIMURIUM, Strain/Indicator: TA100, Metabolic Activation: RAT LIVER S-9, AROCLOR 1254, Method: PREINCUBATION) is “active; positive”; the mutagenic call (Test System: AMES SALMONELLA TYPHIMURIUM, Strain/Indicator: TA100, Metabolic Activation: RAT, LIVER, S-9, AROCLOR 1254, Method: PREINCUBATION) was “active; positive”.
For the compound `Cc1c2ccccc2c(C)c2c1c1c(c3ccccc32)N1`, the mutagenic call under setting [1] is “active; positive”.
As for `CCCCCC(=O)CC`, the mutagenic call (Test System: CHINESE HAMSTER V-79, Strain/Indicator: V-79 (HPRT)/6-THIOGUANINE, Metabolic Activation: NONE, Method: STANDARD PLATE) was “inactive; negative” and the mutagenic call (Test System: CHINESE HAMSTER V-79, Strain/Indicator: V-79 (HPRT)/6-THIOGUANINE, Metabolic Activation: RAT LIVER S-9, Method: STANDARD PLATE) was “inactive; negative”.

Source of the values: PubChem BioAssay AID1259407 (Chemical Carcinogenesis Research Information System (CCRIS), 2018).
